Assay results reported in patent US12612406B2, “Cytisine salts” (Achieve Pharma UK Limited, priority 2017, dated 2026).

Experiments:
[1] = Lactose compatibility: stability of cytisine and cytisine salts with lactose on storage, cytisine by HPLC; format: physicochemical; conditions: 25° C./60% RH and 40° C./75% RH, 7 and 14 days
Experimental: The stability of formulations of cytisine and the present cytisine salts with lactose was investigated. Samples were stored at 25° C. and 60% relative humidity (RH) and at 40° C. and 75% RH and evaluated after 7 and 14 days. […] Thus, these salts effectively improve the stability of cytisine and facilitates its formulation with compositions comprising lactose.

[2] = Screening of cytisine salt formation with acid salt formers; format: physicochemical; conditions: equimolar acid, 40° C. one hour, cooled to ambient
Experimental: Stock solutions of acid salt formers were prepared in the carrier solvents and having the molarities detailed in the following Table 1 below:
Stock solutions of cytisine API (non-synthetic) were also prepared in CH3CN and in Me-THF. 2.4 g of cytisine was dissolved in 60 ml of 2-Me-THF heated to a temperature of 60° C. 2.4 g of cytisine was dissolved in 24 ml of CH3CN heated to a temperature of 40° C.
200 ml capacity tubes heated to 40° C. were charged with 2 ml or 5 ml of the cytisine stock solution. The acid stock solutions were then added to the heated tubes in equimolar amounts. The solutions were held at 40° C. for one hour and then allowed to cool to ambient temperature (˜18° C.) for 18 hours.
Filtration of the obtained solids was then carried out using a PTFE fritted column and the obtained solids were dried at 50° C. for 48 hours. The properties of the obtained products were then analysed, and the outcome of this screen and the properties of the obtained products are summarised in Table 2 below: […]

Compound | Degradation rate of cytisine compared with free base form [1] | Assessment (salt preparation) ([2]; API stock solution in 2-MeTHF) | Assessment (salt preparation) ([2]; API stock solution in CH3CN)
CS(=O)(=O)O.O=c1cccc2n1C[C@@H]1CNC[C@H]2C1 [Mesylate, Cytisine Mesylate] | degraded at a substantially lower rate | Excellent salt profile | Excellent salt profile
Glucuronate |  | Failed to yield solid | Failed to yield solid
O=C(O)C=CC(=O)O.O=c1cccc2n1CC1CNCC2C1 (stereo not shown) [Maleate, Cytisine Maleate] |  | Excellent salt profile | Excellent salt profile
Benzoate |  | Failed to yield solid | Failed to yield solid
Ascorbate |  | Secondary precipitations, unstable salt | Secondary precipitations, unstable salt
CC(=O)O [Acetate] |  | Secondary precipitations, unstable salt | Secondary precipitations, unstable salt
O=C(O)c1cc(O)ccc1O.O=c1cccc2n1C[C@@H]1CNC[C@H]2C1 [Gentisate, Cytisine Gentisate] | degraded at a substantially lower rate | Excellent salt profile | Excellent salt profile
